Reference: ChEMBL document CHEMBL1150889, “Thiomycalolides: new cytotoxic trisoxazole-containing macrolides isolated from a marine sponge Mycale sp” (J Nat Prod, 1998)
Values after ≈ are worked out from the molar mass of the structure shown.

System: P388
Assay: Cytotoxicity against mouse P388 cells
Assay type: functional, cell-based

SMILES | IC50 [µg/mL]
COC(CC1OC(=O)CC(O)CC(SC[C@H](NC(=O)CC[C@H](N)C(=O)O)C(=O)NCC(=O)O)CC(=O)C(C)C(OC)c2coc(n2)-c2coc(n2)-c2coc(n2)/C=C/CC(OC)C1C)C(C)CCC(=O)C(C)C(OC(C)=O)C(C)/C=C/N(C)C=O (some centres not stated) [THIOMYCALOLIDE A] | 0.018 (≈ 0.0148 µM)
COCC(OC)C(=O)OC(CCC(C)C(CC1OC(=O)CC(O)CC(SC[C@H](NC(=O)CC[C@H](N)C(=O)O)C(=O)NCC(=O)O)CC(=O)C(C)C(OC)c2coc(n2)-c2coc(n2)-c2coc(n2)/C=C/CC(OC)C1C)OC)C(C)C(OC(C)=O)C(C)/C=C/N(C)C=O (some centres not stated) [THIOMYCALOLIDE B] | 0.018 (≈ 0.0135 µM)
